Data reported in patent publication US20100151104A1, “Preservative System For Beverages Based On Combinations Of Trans-Cinnamic Acid, Lauric Arginate, And Dimethyl Dicarbonate” (priority 2008, published 2010).

Experiments:
[1] = system: mold spores (Byssochlamyus nieva and Paecilomyces variotti); assay: Germination of bio-indicator mold spores with ascorbic acid and potassium sorbate; type: cell-based
Excerpt: Ascorbic acid may be incorporated as part of the microbiological chemical preservation system. Ascorbic acid is not generally considered an antimicrobial. Instead, ascorbic acid is understood to “preserve” food ingredients against oxidation. In this respect, ascorbic acid is understood to be “anti-oxidant” preservative.

[2] = Example 8: growth/no growth in energy beverage pH 2.85, 16 weeks; type: cell-based; details: pH 2.9, read-out: minimum inhibitory concentration of DMDC required to preserve
Experimental: A single preparation of base beverage was employed to prepare each of five tests. The beverage formulation chosen mimics that of a Energy beverage and is composed per liter as follows: 209 mg Rebaudioside A (REB A), 248 mg Potassium Citrate 248 mg Flavor-vitamin mixture, 248 mg calcium lactate, 298 mg Xanthan gum, 668 mg citric acid 995 mg color, 995 mg Pomegranate flavor, 24900 mg erythritol. The ingredients were added to RO water adjusted to 90 ppm hardness with calcium chloride and magnesium chloride. The acidity of the product was adjusted to pH 2.85 with a mixture of citric acid and sodium citrate.
Each of the five tests employed the same bio-indicator organisms; Growth (+) versus no growth (−) established by visual inspection or spectrophotometrically. The organisms and the key (code) employed in FIGS. 7a-7e are as follows: Spores, M1 Paecilomyces/Byssochalmys nieva, Pespi isolate D16; C-8UP, Brettanomyces species, Pepsi Isolate; M6, Talaromyces flavus var. flavus ATCC 10512; Brettanomyces species, Pepsi isolate H2O2; Spores, M12 Penicillium camebertii (Pepsi isolate D1)”; an ascospore preparation of Saccharomyces cerevisiae strain 99(Spore) and Y3, Zygosaccharomyce baili Pepsi isolate 906;. Samples were incubated for period of 16 weeks at 25° C. in vessels protective against evaporation. The results are depicted in FIGS. 7a-7e.

[3] = system: vegetative forms of yeast, mold, and bacteria; details: reported by the manufacturer of DMDC; cited from earlier work
[4] = system: bio-indicator organisms (Zygosaccharomyce baili, Brettanomyces species, Saccharomyces cerevisiae, Paecilomyces lilacinus, Zygosaccharomyces bisporus …); details: FIG. 2a; absence of cinnamic acid; pH 3.4; 16 weeks
Excerpt: A single preparation of base beverage was employed to prepare each of five tests and consisted of 4% apple juice, 68 g sucrose/L, 52 g glucose/L, 2 g fructose/L prepared in batch water that was formulated to 90 ppm hardness with calcium chloride and magnesium chloride. A pH of 3.4 was achieved through combinations of malic acid and sodium malate for all preparations regardless of the presence or absence of lauric arginate or cinnamic acid. The total combined quantity of sodium malate and malic acid was near constant, but the ratio of malic acid and malate varied slightly given the presence or absence of lauric arginate or cinnamic acid. […] Where required, lauric arginate or cinnamic acid was supplemented from separately prepared stock solutions. Dimethyl dicarbonate was delivered by means of hypodermic needle (Hamilton syringe) through septum that sealed the test vessel against loss of moisture. Dimethyl dicarbonate stock solution consisted of 1 ml of dimethyl dicarbonate (1.25 g) in 49 ml of 100% ethanol (25 mg/ml).
Each of the five tests employed the same bio-indicator organisms; Growth (+) versus no growth (−) established by visual inspection or spectrophotometrically. […]

[5] = system: bio-indicator organisms; mold strains M1 (Paecilomyces/Byssochalmys nieva) and M6 (Talaromyces flavus var. flavus); assay: Example 6: growth/no growth in enhanced water product pH 4.5, 16 weeks; type: cell-based; details: FIG. 5a; enhanced water pH 4.5; DMDC singular antimicrobial agent
Experimental: A single preparation of base beverage was employed to prepare each of five tests. The beverage formulation chosen mimics that of an enhanced water product and is composed per liter as follows 37.2 mg Acesulfame K+; 100mg Vitamin E acetate, 54.1 mg Vitamin B mix, 331 mg sucralose 748 mg grape flavor, 3236 mg of liquid sucrose, 26.5 mg antifoam, 20 mg polysorbate. The ingredients were added to RO water adjusted to 90 ppm hardness with calcium chloride and magnesium chloride. The acidity of the product was adjusted to pH 4.5 with a mixture of succinic acid and Sodium succinate dibasic hexadydrate. The total concentration of succinic acid in solution was approximately 8 mM.
Each of the five tests employed the same bio-indicator organisms; Growth (+) versus no growth (−) established by visual inspection or spectrophotometrically. The organisms and the key (code) employed in FIGS. 5a-5e are as follows: Spores, M1 Paecilomyces/Byssochalmys nieva, Pespi isolate D16; C-7UP, Brettanomyces species, Pepsi Isolate; Spores, M6, Talaromyces flavus var. flavus ATCC 10512; Brettanomyces species, Pepsi isolate H202; Acetobacter species, Pepsi isolate “Atlanta”; an ascospore preparation of Saccharomyces cerevisiae strain 99(Spore) and Y3, Zygosaccharomyce baili, Pepsi isolate 906;. Samples were incubated for period of 16 weeks at 25° C. in vessels protective against evaporation. […]

[6] = system: bio-indicator organisms (Zygosaccharomyce baili, Brettanomyces species, Saccharomyces cerevisiae, Paecilomyces lilacinus, Zygosaccharomyces bisporus …); assay: Example 4: efficacy of DMDC alone in commercial product types and apple juice medium, 16 weeks; type: cell-based
Experimental: The efficacy of DMDC in a range of existing commercial product types was established in order to establish a baseline for future testing of products in development. A separate test of efficacy of DMDC alone in the test apple juice medium is used in comparison. Simply, four different products that are packaged without preservatives (aseptic package) were purchased from local markets.
The base test beverage formulation (Apple Juice Medium) was prepared as in other tests herewithin, and consisted of 4% apple juice, 68 g sucrose/L, 52 g glucose/L, 2 g fructose/L prepared in batch water that was formulated to 90 ppm hardness with calcium chloride and magnesium chloride. A pH of 3.4 was achieved through combinations of malic acid and sodium malate
Product was transferred to test vessels and vessels were inoculated with bio-indicator organisms. Immediately after inoculation, the test vessels were sealed with septum seal that allowed dosing of DMDC by Hamilton syringe. Dimethyl dicarbonate stock solution consisted of 1 ml of dimethyl dicarbonate (1.25 g) in 49 ml of 100% ethanol (25 mg/ml). […] After dosing with DMDC, the content of each test vessel was immediately mixed by vortex mixing. All testing was performed at ambient and test solutions were at ambient. […]

[7] = system: bio-indicator organisms; mold strains M1 (Paecilomyces/Byssochalmys nieva) and M6 (Talaromyces flavus var. flavus); assay: Example 7: growth/no growth in green tea beverage pH 5.5, 16 weeks; type: cell-based; details: pH 5.5, read-out: minimum inhibitory concentration of DMDC required to preserve
Experimental: A single preparation of base beverage was employed to prepare each of five tests. The beverage formulation chosen mimics that of a green tea beverage composed per liter as follows: 170 mg Citrus Pectin; 500 mg honey granules 550 mg Acerola Dry Vitamin C, 1,332 mg green tea solid, 2,046 mg tea flavor; 65,590 mg granulated sucrose. The ingredients were added to RO water adjusted to 90 ppm hardness with calcium chloride and magnesium chloride. The acidity of the product was adjusted to pH 5.5 with a mixture of succinic acid and sodium succinate dibasic hexadydrate. The total concentration of succinic acid in solution was approximately 8 mM.
Each of the five tests employed the same bio-indicator organisms; Growth (+) versus no growth (−) established by visual inspection or spectrophotometrically. The organisms and the key (code) employed in FIGS. 6a-6e are as follows: Spores, M1 Paecilomyces/Byssochalmys nieva, Pespi isolate D16; C-7UP, Brettanomyces species, Pepsi Isolate; Spores, M6, Talaromyces flavus var. flavus ATCC 10512; Brettanomyces species, Pepsi isolate H202; Acetobacter species, Pepsi isolate “Atlanta”; an ascospore preparation of Saccharomyces cerevisiae strain 99(Spore) and Y3, Zygosaccharomyce baili, Pepsi isolate 906;. Samples were incubated for period of 16 weeks at 25° C. in vessels protective against evaporation. The results are depicted in FIGS. 6a-6e.

C/C=C/C=C/C(=O)[O-].[K+] [Potassium sorbate, Potassium Sorbate, reference compound]
prevention of spore germination ([1]; Potassium sorbate alone at concentrations below 200 ppm): unable to prevent spore germination

O=C1O[C@H]([C@@H](O)CO)C(O)=C1O [ascorbic acid]
effect on spore germination ([1]; ascorbic acid alone at 400 ppm): able to retard germination

COC(=O)OC(=O)OC [DMDC, dimethyl dicarbonate]
MIC [2]: < 125 µg/mL | concentration required to stabilize beverage for 16 weeks [3]: at least 250 mg/liter | DMDC required to inhibit the growth of all bio-indicator organisms [4]: 0.95 mM | concentration of DMDC tolerated by M1 and M6 [5]: ≥ 200 ppm | stability against spoilage ([6]; commercial tea beverage (pH 3.3) with honey, DMDC 2.61 mM (350 ppm)): unstable against spoilage | DMDC concentration that stabilized the formulation ([6]; green tea formulation containing lemon flavor, DMDC alone): 0.75 mM | MIC [7]: > 225 µg/mL
